Test results as given in patent US8796298B2, “Combination of a B-Raf inhibitor: N-{3-[5-(2-Amino-4-pyrimidinyl)-2-(1,1- dimethylethyl)-1,3-thiazol-4-yl]-2-fluorophenyl}-2,6-difluorobenzenesulfonamide and the Akt inhibitor: N-{ (1S)-2-amino-1-[(3- fluorophenyl)methyl]ethyl}-5-chIoro-4-(4-chIoro- 1 -methyl- 1 H-pyrazol-5-yl)-2-10 …” (GlaxoSmithKline LLC, priority 2009, dated 2014).
Where two headings read alike, the source gives them in different places.

Legend:
LS1034 = test: Cell growth inhibition assay (Cell Titer Glo), LS1034; assay type: cell-based; details: Homo sapiens, LS-1034, 72 h; LS1034 colon; BRAF WT, KRAS A146T, PIK3CA WT; 3 days; read-out: IC50 values, Single Agent
Method: (§1) Human colon tumor lines, Colo205, DLD1, HCC2998, HCT15, HCT8, HT29, KM-12, LS1034, LS174T, RKO, SW1463, SW480, SW837 and T84, and human breast tumor cell lines EFM19 and MDA-MB-175VII were cultured in RPMI 1640 medium containing 10% fetal bovine serum (FBS).
(§2) All cells were cultured for a minimum of 72 hours prior to cell plating. Cells were assayed in a 96-well tissue culture plate (NUNC 136102) of RPMI medium containing 10% FBS for all cells at 1,000 cells per well. […] ATP levels were determined by adding Cell Titer Glo® (Promega) according to the manufacturer's protocol. Briefly, Cell Titer Glo® was added each plate, incubated for 30 minutes then luminescent signal was read on the SpectraMax L plate reader with a 0.5 sec integration time.
(§3) Inhibition of cell growth was estimated after treatment with compound or combination of compounds for three days and comparing the signal to cells treated with vehicle (DMSO). Cell growth was calculated relative to vehicle (DMSO) treated control wells. […]
(§4) The combination effects on the response scale were quantified by Excess Over Highest Single Agent (EOHSA) based on the concept of nonlinear blending as described in detail by Peterson and Novick (2007) and Peterson (2010) [(2;3) [Peterson and Novick, 2007; Peterson, 2010]. […]

Colo205 = test: Cell growth inhibition assay (Cell Titer Glo), Colo205; assay type: cell-based, Human; details: for IC50: Homo sapiens, COLO 205, 72 h, Colo205 colon, BRAF V600E, KRAS WT, PIK3CA WT, 3 days, mean ± std, read-out: IC50 values, Single Agent
Method: as §1
(§5) All cells were cultured for a minimum of 72 hours prior to cell plating. Cells were assayed in a 96-well tissue culture plate (NUNC 136102) of RPMI medium containing 10% FBS for all cells at 1,000 cells per well. Approximately 24 hours after plating, cells were exposed to ten, three-fold serial dilutions of compound or the combination of the two agents at a constant molar to molar ratio of 1:10 Compound A to Compound B in RPMI media containing 10% FBS. Cells were incubated in the presence of compounds for 3 days. ATP levels were determined by adding Cell Titer Glo® (Promega) according to the manufacturer's protocol. Briefly, Cell Titer Glo® was added each plate, incubated for 30 minutes then luminescent signal was read on the SpectraMax L plate reader with a 0.5 sec integration time.
(§6) Inhibition of cell growth was estimated after treatment with compound or combination of compounds for three days and comparing the signal to cells treated with vehicle (DMSO). Cell growth was calculated relative to vehicle (DMSO) treated control wells.
(§7) In general, a CI value <0.9, between 0.9 and 1.1, or >1.1 indicates synergy, additivity and antagonism, respectively. […]
The combination effects on the response scale were quantified by Excess Over Highest Single Agent (EOHSA) based on the concept of nonlinear blending as described in detail by Peterson and Novick (2007) and Peterson (2010) [(2;3) [Peterson and Novick, 2007; Peterson, 2010]. […] For single agent and combination treatments, cells were exposed to compounds at a fixed-dose-ratio, and dose response curves were fit to the experimental data and analyzed using regression models. At specified total dose levels of IC50 along the dose response curve, the dose combination (corresponding to IC50) was determined for making EOHSA statistical inferences.

EFM19 = test: Cell growth inhibition assay (Cell Titer Glo), EFM19; assay type: cell-based; details: Homo sapiens, EFM-19, 72 h; EFM19 breast; BRAF WT, KRAS WT, PIK3CA WT; 3 days; mean ± std; read-out: IC50 values, Single Agent
Method: as §1, §2, §3, §4

HCT8 = test: Cell growth inhibition assay (Cell Titer Glo), HCT8; assay type: cell-based; details: Homo sapiens, HCT-8, 72 h; HCT8 colon; BRAF WT, KRAS G13D, PIK3CA E545K; 3 days; mean ± std; read-out: IC50 values, Single Agent
Method: as §1, §2, §3, §4

SW480 = test: Cell growth inhibition assay (Cell Titer Glo), SW480; assay type: cell-based; details: Homo sapiens, 72 h; SW480 colon; BRAF WT, KRAS G12C, PIK3CA WT; 3 days; mean ± std; read-out: IC50 values, Single Agent
Method: as §1, §2, §3, §4

KM-12 = test: Cell growth inhibition assay (Cell Titer Glo), KM-12; assay type: cell-based; details: Homo sapiens, KM12, 72 h; KM-12 colon; BRAF WT, KRAS WT, PIK3CA WT; 3 days; mean ± std; read-out: IC50 values, Single Agent
Method: as §1, §2, §3, §4

SW837 = test: Cell growth inhibition assay (Cell Titer Glo), SW837; assay type: cell-based; details: Homo sapiens, 72 h; SW837 colon; BRAF WT, KRAS G12C, PIK3CA WT; 3 days; read-out: IC50 values, Single Agent
Method: as §1, §2, §3, §4

HCC2998 = test: Cell growth inhibition assay (Cell Titer Glo), HCC2998; assay type: cell-based; details: Homo sapiens, HCC 2998, 72 h; HCC2998 colon; BRAF WT, KRAS A146T, PIK3CA WT; 3 days; read-out: IC50 values, Single Agent
Method: as §1, §2, §3, §4

HT29 = test: Cell growth inhibition assay (Cell Titer Glo), HT29; assay type: cell-based, Human
Method: as §1, §2, §3, §4

T84 = test: Cell growth inhibition assay (Cell Titer Glo), T84; assay type: cell-based; details: Homo sapiens, 72 h; T84 colon; BRAF WT, KRAS G13D, PIK3CA E542K; 3 days; read-out: IC50 values, Single Agent
Method: as §1, §2, §3, §4

HCT15 = test: Cell growth inhibition assay (Cell Titer Glo), HCT15; assay type: cell-based; details: Homo sapiens, HCT-15, 72 h; HCT15 colon; BRAF WT, KRAS G13D, PIK3CA D549N, E545K; 3 days; mean ± std; read-out: IC50 values, Single Agent
Method: as §1, §2, §3, §4

DLD1 = test: Cell growth inhibition assay (Cell Titer Glo), DLD1; assay type: cell-based; details: Homo sapiens, DLD-1, 72 h; DLD1 colon; BRAF WT, KRAS G13D, PIK3CA E545K, D549N; 3 days; read-out: IC50 values, Single Agent
Method: as §1, §2, §3, §4

SW1463 = test: Cell growth inhibition assay (Cell Titer Glo), SW1463; assay type: cell-based; details: Homo sapiens, 72 h; SW1463 colon; BRAF WT, KRAS G12C, PIK3CA WT; 3 days; read-out: IC50 values, Single Agent
Method: as §1, §2, §3, §4

RKO colon line = test: Cell growth inhibition assay (Cell Titer Glo), RKO; assay type: cell-based; details: Homo sapiens
Method: as §1, §5, §6
In general, a CI value <0.9, between 0.9 and 1.1, or >1.1 indicates synergy, additivity and antagonism, respectively. In general, the smaller the CI number, the greater is the strength of synergy.
(§8) The combination effects on the response scale were quantified by Excess Over Highest Single Agent (EOHSA) based on the concept of nonlinear blending as described in detail by Peterson and Novick (2007) and Peterson (2010) [(2;3) [Peterson and Novick, 2007; Peterson, 2010]. EOHSA values are defined as increases in improvement (here, in ‘percentage points’ (ppts) difference) produced by the combination over the best single agent at its component dose level for the combination. For single agent and combination treatments, cells were exposed to compounds at a fixed-dose-ratio, and dose response curves were fit to the experimental data and analyzed using regression models. At specified total dose levels of IC50 along the dose response curve, the dose combination (corresponding to IC50) was determined for making EOHSA statistical inferences.

MDA-MB-175VII = test: Cell growth inhibition assay (Cell Titer Glo), MDA-MB-175VII; assay type: cell-based; details: Homo sapiens, 72 h; MDA-MB-175VII breast; BRAF WT, KRAS WT, PIK3CA H1049L; 3 days; mean ± std; read-out: IC50 values, Single Agent
Method: as §1, §2, §3, §4

[1] = test system: 10 colon lines without BRAF V600E mutation; test: Cell growth inhibition assay (Cell Titer Glo), colon lines without BRAF V600E mutation; assay type: cell-based; details: Homo sapiens; the other 10 colon lines without BRAF V600E mutation (KRAS wild type or mutated); read-out: IC50s, compound alone
Method: All cells were cultured for a minimum of 72 hours prior to cell plating. […] Cells were incubated in the presence of compounds for 3 days. ATP levels were determined by adding Cell Titer Glo® (Promega) according to the manufacturer's protocol. Briefly, Cell Titer Glo® was added each plate, incubated for 30 minutes then luminescent signal was read on the SpectraMax L plate reader with a 0.5 sec integration time.
as §6, §7
as §8, with “EOHSA” for “The combination effects on the response scale were quantified by Excess Over Highest Single Agent (EOHSA) based on the concept of nonlinear blending as described in detail by Peterson and Novick (2007) and Peterson (2010) [(2;3) [Peterson and Novick, 2007; Peterson, 2010]. EOHSA”

[2] = 72 h, RKO colon, BRAF V600E, KRAS WT, PIK3CA H1047R, 3 days, mean ± std, read-out: IC50 values, Single Agent
[3] = RKO colon line, BRAF V600E and PIK3CA H1047R, single agent, read-out: IC50, compound alone

| IC50 (HT29; Homo sapiens, HT-29, 72 h, HT29 colon, BRAF V600E, KRAS WT, PIK3CA P449T, 3 days, mean ± std, read-out: IC50 values, Single Agent) [µM] | SMILES | IC50 (LS1034) [µM] | sensitivity to compound alone in words (Colo205; Colo205, BRAF V600E mutation line) | IC50 (Colo205) [µM] | IC50 (EFM19) [µM] | IC50 (HCT8) [µM] | IC50 (SW480) [µM] | IC50 (KM-12) [µM] | IC50 (SW837) [µM] | IC50 (HCC2998) [µM] | sensitivity to compound alone in words (HT29; HT29, BRAF V600E mutation line) | IC50 (T84) [µM] | IC50 (HCT15) [µM] | IC50 (DLD1) [µM] | IC50 (SW1463) [µM] | IC50 (RKO colon line; [2]) [µM] | IC50 (RKO colon line; [3]) [µM] | IC50 (MDA-MB-175VII) [µM] | IC50 [1] [µM] |
| --- | --- | --- | --- | --- | --- | --- | --- | --- | --- | --- | --- | --- | --- | --- | --- | --- | --- | --- | --- |
|  | CC(C)(C)c1nc(-c2cccc(NS(=O)(=O)c3c(F)cccc3F)c2F)c(-c2ccnc(N)n2)s1 [Compound A, N-{3-[5-(2-Amino-4-pyrimidinyl)-2-(1,1-dimethylethyl)-1,3-thiazol-4-yl]-2-fluorophenyl}-2,6-difluorobenzenesulfonamide] | > 10 | highly sensitive | 0.013 ± 0.004 | > 10 | > 10 | > 10 | > 10 | > 10 | > 10 | highly sensitive | > 10 | > 10 | > 10 | > 10 | 4.2 ± 4.03 | > 1 | > 10 | > 10 |
| 1.43 ± 0.073 | Cn1ncc(Cl)c1-c1cc(C(=O)N[C@H](CN)Cc2cccc(F)c2)sc1Cl [Compound B, N-{(1S)-2-amino-1-[(3-fluorophenyl)methyl]ethyl}-5-chloro-4-(4-chloro-1-methyl-1H-pyrazol-5-yl)-2-thiophenecarboxamide] | > 10 |  | 3.29 ± 0.242 | 0.444 ± 0.285 | 1.55 ± 0.051 | 6.08 ± 0.154 | 4.45 ± 4.2 | > 10 | > 10 |  | > 10 | 7.77 ± 1.69 | > 10 | > 10 | 1.35 ± 0.614 | > 1 | 0.844 ± 0.033 |  |
